In patent US7550558B2, “Antimicrobial peptides and methods for identifying and using such peptides” (priority 2001, dated 2009):
No end group written: not given here.

Assays:
[1] = literature; cited from earlier work

| Sequence | concentrations with no antibacterial effect (MIC) (Micrococcus luteus) [µg/mL] | concentrations with no antibacterial effect (MIC) (Staphylococcus aureus) [µg/mL] | concentrations with no antibacterial effect (MIC) (Escherichia coli) [µg/mL] | minimum inhibitory concentration (MIC) (Candida albicans) [µg/mL] | minimum inhibitory concentration (MIC) (Aspergillus nidulans) [µg/mL] | cytotoxic property [1] | hemolytic property [1] |
| --- | --- | --- | --- | --- | --- | --- | --- |
| HPLKQYWWRPSI [PW2, HPLKQYWWRPSI] | > 200 | > 200 | > 200 | 12.5 to 25 | 25 to 50 |  |  |
| ILPWLWPWWPWRR [indolicidin] |  |  |  |  |  | cytotoxic | hemolytic |
| VRRFPWWWPFLRR [tritrpticin] |  |  |  |  |  | cytotoxic | hemolytic |
